Measured values reported in patent US20230063238A1, “IMMUNOMODULATORS” (Bristol-Myers Squibb Company, priority 2020, published 2023).
Positions of bridges follow the written chain, without caps; N, C: chain ends. Non-standard residues stand in square brackets, D forms with d. Residues, ends and D or L forms follow the SMILES beside them. *: point of attachment. Trp(1-CH2CO2Me) = COC(=O)Cn1cc(C[C@H](N)C(=O)O)c2ccccc21; Hyp = O=C(O)[C@@H]1C[C@@H](O)CN1; Methoxyoxalyl = COC(=O)C(=O)*; X3 = O=C(NCc1ccc(F)cc1)C(=O)*; NMeNle = CCCC[C@H](NC)C(=O)O; X10 = Cc1cc(NC(=O)C(=O)*)no1; X2 = CCc1nnc(NC(=O)C(=O)*)s1; NMeA = CN[C@@H](C)C(=O)O; Dab = NCC[C@H](N)C(=O)O; Dap = NC[C@H](N)C(=O)O; Oxamoyl = NC(=O)C(=O)*

The compounds below were run against T1, PD-1/PD-L1 (Homo sapiens, UniProt Q9NZQ7) (assay: PD-1/PD-L1 Homogenous Time-Resolved Fluorescence (HTRF) binding assay). Details: PD-L1-His 10 nM final, PD-1-Ig 20 nM final; inhibitors pre-incubated with PD-L1-His for 15 m.
T1 construct: TVMV protease site linker (C); made in house; host or cells: HEK293T cells
Source text: The ability of the compounds of formula (I) to bind to PD-L1 was investigated using a PD-1/PD-L1 Homogenous Time-Resolved Fluorescence (HTRF) binding assay.
Homogenous Time-Resolved Fluorescence (HTRF) Binding Assay
The interaction of PD-1 and PD-L1 can be assessed using soluble, purified preparations of the extracellular domains of the two proteins. The PD-1 and PD-L1 protein extracellular domains were expressed as fusion proteins with detection tags, for PD-1, the tag was the Fc portion of Immunoglobulin (PD-1-Ig) and for PD-L1 it was the 6 histidine motif (PD-L1-His). All binding studies were performed in an HTRF assay buffer consisting of dPBS supplemented with 0.1% […] bovine serum albumin and 0.05% (v/v) Tween-20. For the h/PD-L1-His binding assay, inhibitors were pre-incubated with PD-L1-His (10 nM final) for 15 m in 4 μl of assay buffer, followed by addition of PD-1-Ig (20 nM final) in 1 μl of assay buffer and further incubation for 15m. HTRF detection was achieved using europium crypate-labeled anti-Ig (1 nM final) and allophycocyanin (APC) labeled anti-His (20 nM final). Antibodies were diluted in HTRF detection buffer and 5 μl was dispensed on top of the binding reaction. The reaction mixture was allowed to equilibrate for 30 minutes and the resulting signal (665 nm/620 nm ratio) was obtained using an EnVision fluorometer. Additional binding assays were established between the human proteins PD-1-Ig/PD-L2-His (20 & 5 nM, respectively) and CD80-His/PD-L1-Ig (100 & 10 nM, respectively).
Recombinant Proteins: Human PD-1 (25-167) with a C-terminal human Fc domain of immunoglobulin G (Ig) epitope tag [hPD-1 (25-167)-3S-IG] and human PD-L1 (18-239) with a C-terminal His epitope tag [hPD-L1(18-239)-TVMV-His] were expressed in HEK293T cells and purified sequentially by ProteinA affinity chromatography and size exclusion chromatography. Human PD-L2-His and CD80-His was obtained through commercial sources.
Table 1 lists the IC50 values for representative examples of this disclosure measured in the PD-1/PD-L1 Homogenous Time-Resolved Fluorescence (HTRF) binding assay.

T1 sequence (Q9NZQ7 18-239): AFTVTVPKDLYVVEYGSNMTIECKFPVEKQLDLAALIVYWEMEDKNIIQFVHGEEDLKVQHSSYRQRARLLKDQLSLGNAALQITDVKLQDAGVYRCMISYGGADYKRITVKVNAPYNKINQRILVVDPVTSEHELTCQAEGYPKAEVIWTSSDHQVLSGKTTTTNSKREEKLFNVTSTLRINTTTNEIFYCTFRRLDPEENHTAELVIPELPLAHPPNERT

| Structure (SMILES) | IC50 [nM] |
| --- | --- |
| CCCC[C@H]1C(=O)N(C)[C@@H](CCCC)C(=O)N[C@@H](CC(C)C)C(=O)N[C@H](C(=O)NCC(N)=O)CSCC(=O)N[C@@H](Cc2ccc(O)cc2)C(=O)N(C)[C@@H](C)C(=O)N[C@@H](CC(N)=O)C(=O)N2CCC[C@H]2C(=O)N[C@@H](CNC(=O)C(N)=O)C(=O)N[C@@H](CC(C)C)C(=O)N2C[C@H](O)C[C@H]2C(=O)N[C@@H](Cc2c[nH]c3ccccc23)C(=O)N[C@@H](CCNC(=O)C(N)=O)C(=O)N[C@@H](Cc2cn(CC(=O)OC)c3ccccc23)C(=O)N1C [Compound 2006] ({CH2CO}-Y[NMeA]NP[Dap](Oxamoyl)L[Hyp]W[Dab](Oxamoyl)[Trp(1-CH2CO2Me)][NMeNle][NMeNle]LCG-NH2; thioether N-14) | 2.7 |
| CCCC[C@H]1C(=O)N(C)[C@@H](CCCC)C(=O)N[C@@H](CC(C)C)C(=O)N[C@H](C(=O)NCC(N)=O)CSCC(=O)N[C@@H](Cc2ccc(O)cc2)C(=O)N(C)[C@@H](C)C(=O)N[C@@H](CC(N)=O)C(=O)N2CCC[C@H]2C(=O)N[C@@H](CNC(=O)C(=O)Nc2cc(C)on2)C(=O)N[C@@H](CC(C)C)C(=O)N2C[C@H](O)C[C@H]2C(=O)N[C@@H](Cc2c[nH]c3ccccc23)C(=O)N[C@@H](CCNC(=O)C(=O)Nc2cc(C)on2)C(=O)N[C@@H](Cc2cn(CC(=O)OC)c3ccccc23)C(=O)N1C [Compound 2004] ({CH2CO}-Y[NMeA]NP[Dap](X10)L[Hyp]W[Dab](X10)[Trp(1-CH2CO2Me)][NMeNle][NMeNle]LCG-NH2; thioether N-14) | 3 |

Other lines, results leading:

| IC50 [nM] | Structure (SMILES) |
| --- | --- |
| 3.2 | CCCC[C@H]1C(=O)N(C)[C@@H](CCCC)C(=O)N[C@@H](CC(C)C)C(=O)N[C@H](C(=O)NCC(N)=O)CSCC(=O)N[C@@H](Cc2ccc(O)cc2)C(=O)N(C)[C@@H](C)C(=O)N[C@@H](CC(N)=O)C(=O)N2CCC[C@H]2C(=O)N[C@@H](CNC(=O)C(=O)Nc2nnc(CC)s2)C(=O)N[C@@H](CC(C)C)C(=O)N2C[C@H](O)C[C@H]2C(=O)N[C@@H](Cc2c[nH]c3ccccc23)C(=O)N[C@@H](CCNC(=O)C(=O)Nc2nnc(CC)s2)C(=O)N[C@@H](Cc2cn(CC(=O)OC)c3ccccc23)C(=O)N1C [Compound 2008] ({CH2CO}-Y[NMeA]NP[Dap](X2)L[Hyp]W[Dab](X2)[Trp(1-CH2CO2Me)][NMeNle][NMeNle]LCG-NH2; thioether N-14) |
| 6.3 | CCCC[C@H]1C(=O)N(C)[C@@H](CCCC)C(=O)N[C@@H](CC(C)C)C(=O)N[C@H](C(=O)NCC(N)=O)CSCC(=O)N[C@@H](Cc2ccc(O)cc2)C(=O)N(C)[C@@H](C)C(=O)N[C@@H](CC(N)=O)C(=O)N2CCC[C@H]2C(=O)N[C@@H](CNC(=O)C(=O)OC)C(=O)N[C@@H](CC(C)C)C(=O)N2C[C@H](O)C[C@H]2C(=O)N[C@@H](Cc2c[nH]c3ccccc23)C(=O)N[C@@H](CCNC(=O)C(=O)OC)C(=O)N[C@@H](Cc2cn(CC(=O)OC)c3ccccc23)C(=O)N1C [Compound 3001] ({CH2CO}-Y[NMeA]NP[Dap](Methoxyoxalyl)L[Hyp]W[Dab](Methoxyoxalyl)[Trp(1-CH2CO2Me)][NMeNle][NMeNle]LCG-NH2; thioether N-14) |
| 1.2 | CCCC[C@H]1C(=O)N(C)[C@@H](CCCC)C(=O)N[C@@H](CC(C)C)C(=O)N[C@H](C(=O)NCC(N)=O)CSCC(=O)N[C@@H](Cc2ccc(O)cc2)C(=O)N(C)[C@@H](C)C(=O)N[C@@H](CC(N)=O)C(=O)N2CCC[C@H]2C(=O)N[C@@H](CNC(=O)C(=O)NCc2ccc(F)cc2)C(=O)N[C@@H](CC(C)C)C(=O)N2C[C@H](O)C[C@H]2C(=O)N[C@@H](Cc2c[nH]c3ccccc23)C(=O)N[C@@H](CCNC(=O)C(=O)NCc2ccc(F)cc2)C(=O)N[C@@H](Cc2cn(CC(=O)OC)c3ccccc23)C(=O)N1C [Compound 2009] ({CH2CO}-Y[NMeA]NP[Dap](X3)L[Hyp]W[Dab](X3)[Trp(1-CH2CO2Me)][NMeNle][NMeNle]LCG-NH2; thioether N-14) |
